Read-outs that look alike come from different tables or passages of the source.
Assays:
GMK cells [1] = experiment: Cytotoxicity observed microscopically in GMK cells (Test Example 2); format: cell-based, green monkey; design: key: -: no cytotoxicity; ±: slight cytotoxicity; +: cytotoxicity with observable antiviral effect; settings: in parentheses
Method: (§1) Confluent GMK cells (derived from green monkey kidney) in 96-well plates were infected with HSV-1 (Miyama strain) in the presence of various concentrations of test compounds. After incubation, virus-induced cytopathic effect (CPE), inhibitory effect of CPE by the test compound and cytotoxicity were microscopically observed. The virus titer (TCID₅₀) was determined from CPE of virus infected culture. Ancivirus effects of test compounds were calculated from TCID₅₀ values of test compound treated and control cultures and represented by ΔTCID₅₀(log₁₀). Test compounds were dissolved in MEM medium, ethanol or DMSO to 10 mg/ml, and diluted with MEM medium supplemented with 0.5% fetal bovine serum.
In Table 4, parentheses indicate the cytotoxicity of these compounds. (-), (±) and (+) indicate no cytotoxicity, slight cytotoxicity and cytotoxicity with observable antiviral effect, respectively.

[2] = tested on: herpes simplex virus type 1 (Miyama strain); experiment: Antiviral activity against HSV-1 in vitro, inhibition of virus-induced CPE in GMK cells (Test Example 2); format: cell-based, HSV-1 (Miyama strain); settings: 0.5% fetal bovine serum
Method: as §1

GMK cells [3] = experiment: Cytotoxicity observed microscopically in GMK cells (Test Example 1); format: cell-based, green monkey
Method: as §1, with “After incubation, virus-induced cytopathic effect (CPE), inhibitory effect of CPE by the test compound and cytotoxicity were microscopically observed.” left out, “Antivirus” for “Ancivirus”, “1%” for “0.5%”, “bovineserum.” for “bovine serum.”
In Table 1, parentheses indicate the cytotoxicity of these compounds. (-) and (±) indicate no cytotoxicity and slight cytotoxicity, respectively.

[4] = tested on: herpes simplex virus type 1 (Miyama strain); experiment: Antiviral activity against HSV-1 in vitro, inhibition of virus-induced CPE in GMK cells (Test Example 1); format: cell-based, HSV-1 (Miyama strain)
Method: as §1, with “After incubation, virus-induced cytopathic effect (CPE), inhibitory effect of CPE by the test compound and cytotoxicity were microscopically observed.” left out, “Antivirus” for “Ancivirus”, “1%” for “0.5%”, “bovineserum.” for “bovine serum.”

HSV-1 (Miyama strain) = experiment: Anti HSV-1 activity in vivo, intraperitoneally infected mice; design: species or system Male BALB/c mice; settings: 322 PFU (10LD₅₀) HSV-1
Method: Male BALB/c mice (5 weeks of age) were intraperitoneally infected with 322 PFU (plaque forming unit, 10LD₅₀) of HSV-1 (Miyama strain). Twenty one days later, survival ratio and mean survival days were evaluated. Test compounds were dispersed in 5% arabic gum/physiological saline, and intraperitoneally administered at 10 mg and 20 mg/kg. Treatment began just after virus inoculation and continued for 5 days.

MT-4 cells = experiment: Minimum cytotoxic concentration in MT-4 cells; format: cell-based, human; settings: MT-4 cells; in parentheses
Method: MT-4 cells (lymphoma derived from human T cell leukemia) in 96-well plate were infected with […] in the presence of various concentrations of test compounds. After incubation, inhibitory effect of HIV-induced CPE by the test compounds and cytotoxicity were microscopically observed. […] TABLE 6 In Table 6, parentheses indicate the minimum cytotoxic concentration of test compounds.

HIV = experiment: Inhibition of HIV-induced cytopathogenicity in MT-4 cells; format: cell-based; settings: Human immunodeficiency virus 1; MT-4 cells; minimum inhibitory concentration; read-out: Anti-HIV Activity (MIC, µg/ml)
Method: MT-4 cells (lymphoma derived from human T cell leukemia) in 96-well plate were infected with […] in the presence of various concentrations of test compounds. After incubation, inhibitory effect of HIV-induced CPE by the test compounds and cytotoxicity were microscopically observed. […]
Further, since the compounds of the present invention have a chemical structure different from the conventional antiviral substances, it is useful for the prevention or treatment of the infectious diseases caused by viruses resistant to the conventional antiviral substances.

[5] = 10 µg/ml, GMK cells, in parentheses
[6] = Human alphaherpesvirus 1, 10 µg/ml, GMK cells, 1% fetal bovine serum, read-out: Antiviral Activity (ΔTCID₅₀(log₁₀))
[7] = 10 µg/ml, GMK cells, 1% fetal bovine serum
[8] = 10 mg/kg intraperitoneally for 5 days
[9] = 20 mg/kg intraperitoneally for 5 days

| Molecule | cytotoxicity (GMK cells [1]; 10 µg/ml) | Antiviral Activity (ΔTCID₅₀(log₁₀)) ([2]; 10 µg/ml) [log₁₀] | cytotoxicity (GMK cells [3]; [5]) | log reduction at 10 µg/mL [4, 6] | other results |
| --- | --- | --- | --- | --- | --- |
| 2-[4-(2-Trifluoromethylphenyl)-1-piperazinyl]-7-(2-deoxy-α-and β-D-ribofuranosyl)hypoxanthine and 2-[4-(2-Trifluromethylphenyl)-1-piperazinyl]-9-(2-deoxy-α- and β-D-ribofuranosyl)hypoxanthine [Compound of Example 21] | - | 1.00 |  |  |  |
| O=C(CN1CCCC1=O)N1CCN(c2ccccc2Cl)CC1 [Compound of Example 1, 1-(2-Chlorophenyl)-4-(2-pyrrolidon-1-yl)acetylpiperazine] |  |  | - | 0.17 |  |
| CC(=O)Oc1ccccc1C(=O)N1CCN(c2ccccc2Cl)CC1 [Compound of Example 2, 1-(2-Acetoxybenzoyl)-4-(2-chlorophenyl)piperazine] |  |  | - | 0.5 |  |
| O=C(c1ccccc1O)N1CCN(c2ccccc2Cl)CC1 [Compound of Example 3, 1-(2-Chlorophenyl)-4-(2-hydroxybenzoyl)piperazine] |  |  | - | 0.83 |  |
| O=C(CC12CCCN1CCC2)N1CCN(c2ccccc2Cl)CC1 [Compound of Example 4, 1-(1-Azabicyclo[3.3.0]octan-5-yl)acetyl-4-(2-chlorophenyl)piperazine] |  |  |  |  | Antiviral Activity (ΔTCID₅₀(log₁₀)) [4, 7]: 0.66 log₁₀ |
| CCn1cc(C(=O)O)c(=O)c2cc(F)c(N3CCN(c4ccccc4Cl)CC3)cc21 [Compound of Example 5, 7-[4-(2-Chlorophenyl)-1-piperazinyl]-1-ethyl-6-fluoro-1,4-dihydro-4-oxoquinoline-3-carboxylic acid] |  |  | ± | > 2.83 | Mean Survival Days (HSV-1 (Miyama strain); [8]): 16.8 ± 1.6 days; Survival Ratio at 21 days (%) (HSV-1 (Miyama strain); [8]): 40%; Mean Survival Days (HSV-1 (Miyama strain); [9]): 18.7 ± 1.2 days; Survival Ratio at 21 days (%) (HSV-1 (Miyama strain); [9]): 70%; cytotoxicity (GMK cells [3]; 5 µg/ml, GMK cells, in parentheses): -; log reduction at 5 µg/mL ([4]; Human alphaherpesvirus 1, 5 µg/ml, GMK cells, 1% fetal bovine serum, read-out: Antiviral Activity (ΔTCID₅₀(log₁₀))): > 2.83 |
| CS(=O)(=O)N1CCN(c2ccccc2Cl)CC1 [Compound of Example 6, 1-(2-Chlorophenyl)-4-methylsulfonylpiperazine] |  |  | - | 0.17 |  |
| CCCCCCCCCCCCCCCCCC(=O)N1CCN(c2ccccc2Cl)CC1 [Compound of Example 7, 1-(2-Chlorophenyl)-4-octadecanoylpiperazine] |  |  | - | 0.17 |  |
| C[C@H](CCC(=O)N1CCN(c2ccccc2Cl)CC1)[C@H]1CC[C@H]2[C@@H]3CC[C@@H]4CCCC[C@]4(C)[C@H]3CC[C@]12C [Compound of Example 10, 1-(2-Chlorophenyl)-4-(5β-cholan-24-oyl)piperazine] |  |  |  | 0.17 | cytotoxicity (GMK cells [3]; green monkey, 10 µg/ml): - |
| NS(=O)(=O)c1ccc(N2CCN(c3ccccc3Cl)CC2)cc1 [Compound of Example 11, 1-(4-Aminosulfonylphenyl)-4-(2-chlorophenyl)piperazine] |  |  | - | 1.5 |  |
| CCN1CCN(c2ccccc2Cl)CC1 [Compound of Example 12, 1-(2-Chlorophenyl)-4-ethylpiperazine] |  |  | - |  | log reduction at 10 µg/mL ([4]; Human alphaherpesvirus 1, GMK, read-out: Antiviral Activity (ΔTCID₅₀(log₁₀))): 0.33 |
| CC(=O)N1CCN(c2ccccc2Cl)CC1 [Compound of Example 13, 1-Acetyl-4-(2-chlorophenyl)piperazine] |  |  | - | 0 |  |
| CC1(C)[C@@H](O)CC[C@]2(C)[C@H]3CC=C4[C@@H]5C[C@@](C)(C(=O)N6CCN(c7ccccc7Cl)CC6)CC[C@]5(C)CC[C@@]4(C)[C@]3(C)CC[C@@H]12 [Compound of Example 15, 1-(3β-Hydroxy-18β-olean-12-en-30-oyl)-4-(2-chlorophenyl)piperazine] |  |  |  |  | Antiviral Activity (ΔTCID₅₀(log₁₀)) [4, 7]: > 2.00 log₁₀ |
| CCCCCCCC(=O)N1CCN(c2ccccc2C(F)(F)F)CC1 [Compound of Example 16, 1-(2-Trifluoromethylphenyl)-4-octanoylpiperazine] | + | > 3.00 |  |  | cytotoxicity (GMK cells [1]; 5 µg/ml): -; minimum cytotoxic concentration (MT-4 cells): 125 µg/mL; Antiviral Activity (ΔTCID₅₀(log₁₀)) ([2]; 5 µg/ml): 2.16 log₁₀; MIC (HIV): > 63 µg/mL |
| CCCCC/C=C\C/C=C\CCCCCCCC(=O)N1CCN(c2ccccc2C(F)(F)F)CC1 [Compound of Example 17, 1-(2-Trifluoromethylphenyl)-4-[(Z,Z)-9,12-octadecadienoyl]piperazine] | - | 1.56 |  |  |  |
| CC1(C)[C@@H](O)CC[C@]2(C)[C@H]3CC=C4[C@@H]5C[C@@](C)(C(=O)N6CCN(c7ccccc7C(F)(F)F)CC6)CC[C@]5(C)CC[C@@]4(C)[C@]3(C)CC[C@@H]12 [Compound of Example 18, 4-(2-Trifluoromethylphenyl)-1-(3β-hydroxy-18β-olean-12-en-30-oyl)piperazine] | - | 1.67 |  |  |  |
| O=c1[nH]c(N2CCN(c3ccccc3C(F)(F)F)CC2)nc2nc[nH]c12 [Compound of Example 20, 2-[4-(2-Trifluoromethylphenyl)-1-piperazinyl]hypoxanthine] | ± | > 2.83 |  |  | cytotoxicity (GMK cells [1]; 5 µg/ml): -; Antiviral Activity (ΔTCID₅₀(log₁₀)) ([2]; 5 µg/ml): 1.66 log₁₀ |
| COc1ccc2[nH]c(C(=O)N3CCN(c4ccccc4C(F)(F)F)CC3)cc2c1 [Compound of Example 22, 1-(5-Methoxyindolyl-2-carbonyl)-4-(2-trifluoromethyl)piperazine] | - | 0.64 |  |  |  |
| CCn1cc(C(=O)O)c(=O)c2cc(F)c(N3CCN(c4ccccc4C(F)(F)F)CC3)cc21 [Compound of Example 23, 1-Ethyl-6-fluoro-7-[4-(2-trifluoromethylphenyl)-1-piperazinyl]-1,4-dihydro-4-oxoquinoline-3-carboxylic acid] | + | > 3.17 |  |  | cytotoxicity (GMK cells [1]; 5 µg/ml): ±; Antiviral Activity (ΔTCID₅₀(log₁₀)) ([2]; 5 µg/ml): > 3.17 log₁₀ |
| Cc1cc(O)c2c(=O)c(C)c(-c3ccc(OC(=O)CN4CCN(c5ccccc5C(F)(F)F)CC4)cc3)oc2c1 [Compound of Example 24, 2-[4-(4-(2-Trifluoromethylphenyl)-1-piperazinylacetoxy)phenyl]-5-hydroxy-3,7-dimethyl-4H-1-benzopyran-4-one] | - | 0.33 |  |  |  |
| CC[C@@]12C=C(C(=O)NCCN3CCN(c4ccccc4OC)CC3)n3c4c(c5ccccc53)CCN(CCC1)[C@H]42 [Compound of Example 25, N-[4-(2-Methoxyphenyl)piperazine-1-yl]ethyl-(3α,16α)-eburunamenine-14-caboxamide] | - | 2.27 |  |  | cytotoxicity (GMK cells [1]; 5 µg/ml): -; Antiviral Activity (ΔTCID₅₀(log₁₀)) ([2]; 5 µg/ml): 0.67 log₁₀ |
| CC[C@@]12C=C(C(=O)NCCN3CCN(c4ccccc4Cl)CC3)n3c4c(c5ccccc53)CCN(CCC1)[C@H]42 [Compound of Example 26, N-[4-(2-Chlorophenyl)piperazine-1-yl]ethyl-(3α,16α)-eburunamenine-14-caboxamide] | + | > 3.17 |  |  | cytotoxicity (GMK cells [1]; 5 µg/ml): -; Antiviral Activity (ΔTCID₅₀(log₁₀)) ([2]; 5 µg/ml): 2.00 log₁₀ |

Reference: patent EP0548798A1, “Antiviral agent” (SANWA KAGAKU KENKYUSHO CO., LTD., priority 1991, dated 1993)
